In patent US9713608B2, “Method for topically treating actinic keratosis on the trunk (except chest) or extremities with ingenol 3-(3,5-diethylisoxazole-4-carboxylate)” (LEO Laboratories Limited, priority 2013, dated 2017):

Tests used:
[1] = Phase 1 exploratory trial: safety and tolerability of topical gel on forearms of subjects with actinic keratosis; assay type: in vivo, human; conditions: for mean composite LSR scores, time of peak: 8-week trial period; for mean composite LSR scores at Week 8: Week 8, relative to baseline; for number of SAEs of SCC within treated areas: four SAEs in three subjects, about three times more fields treated with ingenol 3-(3,5-diethylisoxazole-4-carboxylate); for most common treatment related AEs: human, in vivo
From the text: Local skin reactions (LSRs) occurs sometimes in the treated area. Often LSRs are quantified by a scale evaluating the following types of skin reactions: erythema, flaking/scaling, crusting, swelling, vasiculation/pustulation, and erosion/ulceration which are categorized into categories 0-4 depending on the severity of the reactions.
A Phase 1 exploratory trial evaluating safety and tolerability of topical administration of ingenol 3-(3,5-diethylisoxazole-4-carboxylate) gel, 0.025%, 0.05% and 0.075% compared to ingenol mebutate gel 0.05% applied on two consecutive days to four separate 25 cm^2 treatment areas on the forearms of subjects with actinic keratosis (field therapy). A single-centre, randomised, active controlled, intra-patient controlled, investigator blind trial.
It is presently believed that ingenol 3-(3,5-diethylisoxazole-4-carboxylate) has a higher efficacy and/or milder LSR profile than ingenol mebutate.
This was a phase 1, single-centre, randomised, active controlled, intra-patient controlled, investigator blinded trial with intra-individual comparisons to explore the safety and tolerability of ingenol 3-(3,5-diethylisoxazole-4-carboxylate) gel 0.025%, 0.05%, and 0.075% compared to ingenol mebutate gel 0.05% applied once daily for two consecutive days on the forearms of subjects with AK.
(§1) The trial population included 40 subjects at least 18 years of age with 12-16 clinically typical, visible, discrete, non-keratotic AK lesions (referred to as selected AK lesions) suitable for RCM within four separate 25 cm^2 (5×5 cm) selected treatment areas (STAs) on the dorsal aspects of the forearms. Each STA was to be separated by at least 5 cm from other STAs.
For each eligible subject, the four STAs are randomised to receive one of four of the investigational product (IP or IPs): • ingenol 3-(3,5-diethylisoxazole-4-carboxylate) gel 0.025% • ingenol 3-(3,5-diethylisoxazole-4-carboxylate) gel 0.05% • ingenol 3-(3,5-diethylisoxazole-4-carboxylate) gel 0.075% • Ingenol mebutate gel 0.05%
Each IP is to be applied to one of the four STAs on each subject according to random assignment on two consecutive days (Day 1 and Day 2). This ensured that all subjects are treated with the four products on both treatment days. The trial consisted of three periods, a screening period, a treatment period, and an observation and follow-up period.
Each IP is applied to one of the four STAs on each subject according to random assignment on two consecutive days (Day 1 and Day 2). The IPs are applied by a specified investigational staff member in the clinical study protocol. Subjects are instructed about post-treatment care and provided with a patient safety and study medication instruction sheet.

[2] = test system: actinic keratosis (AK) lesions; assay: Phase 1 exploratory trial: treatment response of AK lesions (clinical count and Reflectance Confocal Microscopy); assay type: in vivo, human; conditions: for RCM findings in lesions: overall, clinically visible AK lesions and subclinical lesions
From the text: To evaluate treatment responses on AKs of the three concentrations of ingenol 3-(3,5-diethylisoxazole-4-carboxylate) gel compared to the ingenol mebutate gel as assessed by reduction in number of clinically visible selected AK lesions eight weeks after treatment.
To evaluate treatment responses on AKs of the three concentrations of ingenol 3-(3,5-diethylisoxazole-4-carboxylate) gel compared to the ingenol mebutate gel as assessed by Reflectance Confocal Microscopy (RCM) scoring of the clinically visible selected AK lesions before and eight weeks after treatment.
as §1
Whenever possible, four visible and discrete selected AK lesions are identified within each of the four STAs. However, one STA with three selected AK lesions is acceptable for a subject. The selected AK lesions are assessed by RCM. If a selected AK lesion could not be confirmed as an AK lesion by RCM, another STA with selected AK lesions has to be identified. In addition, each subject is to have one subclinical AK lesion suitable for RCM within each STA (these subclinical AKs are referred to as selected subclinical AK lesions).
Treatment efficacy is included as a secondary endpoint and assessed by change in number of clinically visible AK lesions from baseline to 8 weeks after treatment and change in RCM scores from baseline to 8 weeks after treatment.

dermal tumours = assay: in vivo studies in mice, effects on dermal tumours; conditions: compared to ingenol mebutate
From the text: The exact mechanism of action of ingenol 3-(3,5-diethylisoxazole-4-carboxylate) continues to be investigated, but it is believed that ingenol 3-(3,5-diethylisoxazole-4-carboxylate) has a dual mechanism of action inducing cell death as well as stimulation of immune response.

[3] = difficult to treat versus more easily treated anatomical regions; cited from earlier work

SMILES	mean composite LSR scores, time of peak [1]	mean composite LSR scores at Week 8 [1]	incidence of AEs inside STAs ([1]; between treatments)	number of SAEs of SCC within treated areas [1]	most common treatment related AEs [1]	events of Bowen's disease inside treated area ([1]; possibly related AE, reclassified to SAE by sponsor)	change of RCM scores ([2]; baseline to 8 weeks, between the two actives)	RCM findings in lesions [2]	efficacy in eliminating dermal tumours (dermal tumours)	local skin reactions after a given dose [3]
CCc1noc(CC)c1C(=O)O[C@H]1C(C)=C[C@]23C(=O)[C@@H](C=C(CO)[C@@H](O)[C@]12O)[C@H]1[C@@H](C[C@H]3C)C1(C)C [ingenol 3-(3,5-diethylisoxazole-4-carboxylate)]	peaked at Week 1	below baseline at Week 8	no difference	Two	pruritus, burning sensation and tenderness	one	no difference	honeycomb pattern of lesions improved, keratosis decreased, and the thickness of stratum corneum and viable epidermis decreased	more efficacious than ingeno mebutate	
C/C=C(/C)C(=O)O[C@H]1C(C)=C[C@]23C(=O)[C@@H](C=C(CO)[C@@H](O)[C@]12O)[C@H]1[C@@H](C[C@H]3C)C1(C)C [ingenol mebutate, reference compound]	peaked at Week 1	below baseline at Week 8		two	pruritus, burning sensation and tenderness			honeycomb pattern of lesions improved, keratosis decreased, and the thickness of stratum corneum and viable epidermis decreased		milder on difficult to treat anatomical regions
